Columns and labels:
Type in all cases: in vivo
[1] = test system: Italian ryegrass (Lolium mutiflorum); assay: Test C preemergence, visual plant response rating; conditions: Test C, 0 is no effect, 100 is complete control
Summary of the method: (§1)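 Visual injury on a 0 (no effect) to 100 (complete control) scale versus untreated controls, scored approximately 10 d after treatment under greenhouse conditions. Treatments used surfactant-containing non-phytotoxic solvent formulations, sprayed onto loam–sand soil preemergence or onto one- to two-leaf plants 2–10 cm tall postemergence.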

[2] = test system: barnyardgrass (Echinochloa crus-galli); assay: Test C preemergence, visual plant response rating; conditions: Test C, 0 is no effect, 100 is complete control
Summary of the method: as §1

[3] = test system: foxtail, giant (giant foxtail, Setaria faberi); assay: Test C preemergence, visual plant response rating; conditions: Test C, 0 is no effect, 100 is complete control
Summary of the method: as §1

kochia (Bassia scoparia) [4] = assay: Test C preemergence, visual plant response rating; conditions: Test C, 0 is no effect, 100 is complete control
Summary of the method: as §1

[5] = test system: pigweed (Amaranthus retroflexus); assay: Test C preemergence, visual plant response rating; conditions: Test C, 0 is no effect, 100 is complete control
Summary of the method: as §1

[6] = test system: ragweed (common ragweed, Ambrosia artemisiifolia); assay: Test C preemergence, visual plant response rating; conditions: Test C, 0 is no effect, 100 is complete control
Summary of the method: as §1

[7] = test system: Italian ryegrass (Lolium mutiflorum); assay: Test C postemergence, visual plant response rating
Summary of the method: as §1

[8] = test system: barnyardgrass (Echinochloa crus-galli); assay: Test C postemergence, visual plant response rating
Summary of the method: as §1

[9] = test system: blackgrass (Alopecurus myosuroides); assay: Test C postemergence, visual plant response rating
Summary of the method: as §1

corn (Zea mays) = assay: Test C postemergence, visual plant response rating
Summary of the method: as §1

[10] = test system: foxtail, giant (giant foxtail, Setaria faberi); assay: Test C postemergence, visual plant response rating
Summary of the method: as §1

[11] = test system: galium (catchweed bedstraw, Galium aparine); assay: Test C postemergence, visual plant response rating
Summary of the method: as §1

kochia (Bassia scoparia) [12] = assay: Test C postemergence, visual plant response rating
Summary of the method: as §1

[13] = test system: pigweed (Amaranthus retroflexus); assay: Test C postemergence, visual plant response rating
Summary of the method: as §1

[14] = test system: ragweed (common ragweed, Ambrosia artemisiifolia); assay: Test C postemergence, visual plant response rating
Summary of the method: as §1

[15] = test system: wheat (Triticum aestivum); assay: Test C postemergence, visual plant response rating
Summary of the method: as §1

[16] = test system: barnyardgrass (Echinochloa crus-galli); assay: Test D flooded paddy test, visual plant response rating; conditions: 250 g ai/ha, scale 0 to 100 (0 no effect, 100 complete control), 13 to 15 d
Summary of the method: (§2)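 Visual injury scores, 0 (no effect) to 100 (complete control), were assigned after 13 to 15 d in the greenhouse by comparison with controls. Test compounds had been added to paddy water covering soil by 3 cm at the 2-leaf stage.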

[17] = test system: duck salad (Heteranthera limosa); assay: as above; conditions: 250 g ai/ha, scale 0 to 100 (0 no effect, 100 complete control), 13 to 15 d
Summary of the method: as §2

rice (Oryza sativa) = assay: as above; conditions: 250 g ai/ha, scale 0 to 100 (0 no effect, 100 complete control), 13 to 15 d
Summary of the method: as §2

[18] = test system: sedge umbrella (small-flower umbrella sedge, Cyperus difformis); assay: as above; conditions: 250 g ai/ha, scale 0 to 100 (0 no effect, 100 complete control), 13 to 15 d
Summary of the method: as §2

[19] = Test C, postemergence, 125 g ai/ha

`CO/N=C(\c1ccc(Cl)c(Cl)c1)c1c(O)c(C)nn(C)c1=O` [Compound 217] was tested, and the “Ryegrass, Italian plant response rating (0 to 100 scale)” value (from here on “Ryegrass, Italian plant response rating”) ([1]; 31 g ai/ha) was 0, the “Ryegrass, Italian plant response rating” value ([1]; 125 g ai/ha) was 0 and the “Barnyardgrass plant response rating (0 to 100 scale)” value (“Barnyardgrass plant response rating” below) ([2]; 31 g ai/ha) was 0. The “Barnyardgrass plant response rating” value ([2]; 125 g ai/ha) was 0, the “Foxtail, Giant plant response rating (0 to 100 scale)” value (shortened to “Foxtail, Giant plant response rating”) ([3]; 31 g ai/ha) was 0 and the “Foxtail, Giant plant response rating” value ([3]; 125 g ai/ha) was 0. For the same molecule, the “Kochia plant response rating (0 to 100 scale)” value (from here on “Kochia plant response rating”) (kochia (Bassia scoparia) [4]; 31 g ai/ha) was 0, the “Kochia plant response rating” value (kochia (Bassia scoparia) [4]; 125 g ai/ha) was 20 and the “Pigweed plant response rating (0 to 100 scale)” value (“Pigweed plant response rating” for short) ([5]; 31 g ai/ha) was 0. The “Pigweed plant response rating” value ([5]; 125 g ai/ha) was 0, the “Ragweed plant response rating (0 to 100 scale)” value (from here on “Ragweed plant response rating”) ([6]; 31 g ai/ha) was 0 and the “Ragweed plant response rating” value ([6]; 125 g ai/ha) was 0. The “Ryegrass, Italian plant response rating” value ([7]; Postemergence, 31 g ai/ha) was 0, the “Ryegrass, Italian plant response rating” value [7, 19] was 0 and the “Barnyardgrass plant response rating” value ([8]; Postemergence, 31 g ai/ha) was 0. For the same molecule, the “Barnyardgrass plant response rating” value [8, 19] was 20, the “Blackgrass plant response rating (0 to 100 scale)” value (from here on “Blackgrass plant response rating”) ([9]; Postemergence, 31 g ai/ha) was 0 and the “Blackgrass plant response rating” value [9, 19] was 0. The “Corn plant response rating (0 to 100 scale)” value (“Corn plant response rating” for short) (corn (Zea mays); Postemergence, 31 g ai/ha) was 0, the “Corn plant response rating” value (corn (Zea mays); [19]) was 0 and the “Foxtail, Giant plant response rating” value ([10]; Postemergence, 31 g ai/ha) was 0. For the same molecule, the “Foxtail, Giant plant response rating” value [10, 19] was 0, the “Galium plant response rating (0 to 100 scale)” value (shortened to “Galium plant response rating”) ([11]; Postemergence, 31 g ai/ha) was 40 and the “Galium plant response rating” value [11, 19] was 80. For the same molecule, the “Kochia plant response rating” value (kochia (Bassia scoparia) [12]; Postemergence, 31 g ai/ha) was 30, the “Kochia plant response rating” value (kochia (Bassia scoparia) [12]; [19]) was 60 and the “Pigweed plant response rating” value ([13]; Postemergence, 31 g ai/ha) was 10. For the same molecule, the “Pigweed plant response rating” value [13, 19] was 20, the “Ragweed plant response rating” value ([14]; Postemergence, 31 g ai/ha) was 0 and the “Ragweed plant response rating” value [14, 19] was 20. For the same molecule, the “Wheat plant response rating (0 to 100 scale)” value (from here on “Wheat plant response rating”) ([15]; Postemergence, 31 g ai/ha) was 0, the “Wheat plant response rating” value [15, 19] was 0 and the “Plant response rating, Barnyardgrass (Flood)” value [16] was 0. The “Plant response rating, Ducksalad (Flood)” value [17] was 0, the “Plant response rating, Rice (Flood)” value (rice (Oryza sativa)) was 0 and the “Plant response rating, Sedge, Umbrella (Flood)” value [18] was 0.

`CO/N=C(/c1ccc(F)c(Cl)c1)c1c(O)c(C)nn(C)c1=O` [Compound 218] was tested, and the “Ryegrass, Italian plant response rating” value ([1]; 31 g ai/ha) was 0, the “Ryegrass, Italian plant response rating” value ([1]; 125 g ai/ha) was 10 and the “Barnyardgrass plant response rating” value ([2]; 31 g ai/ha) was 0. The “Barnyardgrass plant response rating” value ([2]; 125 g ai/ha) was 0, the “Foxtail, Giant plant response rating” value ([3]; 31 g ai/ha) was 0 and the “Foxtail, Giant plant response rating” value ([3]; 125 g ai/ha) was 0. For the same molecule, the “Kochia plant response rating” value (kochia (Bassia scoparia) [4]; 31 g ai/ha) was 0, the “Kochia plant response rating” value (kochia (Bassia scoparia) [4]; 125 g ai/ha) was 0 and the “Pigweed plant response rating” value ([5]; 31 g ai/ha) was 0. The “Pigweed plant response rating” value ([5]; 125 g ai/ha) was 0, the “Ragweed plant response rating” value ([6]; 31 g ai/ha) was 0 and the “Ragweed plant response rating” value ([6]; 125 g ai/ha) was 0. The “Ryegrass, Italian plant response rating” value ([7]; Postemergence, 31 g ai/ha) was 40, the “Ryegrass, Italian plant response rating” value [7, 19] was 60 and the “Barnyardgrass plant response rating” value ([8]; Postemergence, 31 g ai/ha) was 0. For the same molecule, the “Barnyardgrass plant response rating” value [8, 19] was 10, the “Blackgrass plant response rating” value ([9]; Postemergence, 31 g ai/ha) was 0 and the “Blackgrass plant response rating” value [9, 19] was 0. For the same molecule, the “Corn plant response rating” value (corn (Zea mays); Postemergence, 31 g ai/ha) was 0, the “Corn plant response rating” value (corn (Zea mays); [19]) was 0 and the “Foxtail, Giant plant response rating” value ([10]; Postemergence, 31 g ai/ha) was 0. For the same molecule, the “Foxtail, Giant plant response rating” value [10, 19] was 0, the “Galium plant response rating” value ([11]; Postemergence, 31 g ai/ha) was 50 and the “Galium plant response rating” value [11, 19] was 80. The “Kochia plant response rating” value (kochia (Bassia scoparia) [12]; Postemergence, 31 g ai/ha) was 10, the “Kochia plant response rating” value (kochia (Bassia scoparia) [12]; [19]) was 30 and the “Pigweed plant response rating” value ([13]; Postemergence, 31 g ai/ha) was 20. The “Pigweed plant response rating” value [13, 19] was 60, the “Ragweed plant response rating” value ([14]; Postemergence, 31 g ai/ha) was 0 and the “Ragweed plant response rating” value [14, 19] was 10. For the same molecule, the “Wheat plant response rating” value ([15]; Postemergence, 31 g ai/ha) was 0, the “Wheat plant response rating” value [15, 19] was 0 and the “Plant response rating, Barnyardgrass (Flood)” value [16] was 0. For the same molecule, the “Plant response rating, Ducksalad (Flood)” value [17] was 0, the “Plant response rating, Rice (Flood)” value (rice (Oryza sativa)) was 0 and the “Plant response rating, Sedge, Umbrella (Flood)” value [18] was 0.
